{
  "source": "ChEMBL document CHEMBL1240402",
  "about": "(2010)",
  "test_system": "Clostridium perfringens",
  "data": [
    {"smiles": "CS(=O)(=O)c1ccc([C@@H](O)[C@@H](CF)NC(=O)C(Cl)Cl)cc1", "note": "[FLORFENICOL]", "values": [
      {"measurement": "MIC", "value": 16, "unit": "mg/L"}
    ]},
    {"smiles": "CC(=O)NC[C@H]1CN(c2ccc(N3CCOCC3)c(F)c2)C(=O)O1", "note": "[LINEZOLID]", "values": [
      {"measurement": "MIC", "value": 64, "unit": "mg/L"}
    ]}
  ]
}
